Among the test systems are DLD-1 colon; DMS 114 small cell lung; DMS 273 small cell lung; LXFL 529 NSCLC; RXF-631 renal; SNB-78 CNS; XF 498 CNS; M19-MEL melanoma; MDA-N; P388 leukemia; P388/ADR leukemia; SN12K1 renal.
Assay in all cases: NCI tumour cell line growth inhibition, 48 h

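Grown in 96-well plates, cells were treated for 48 hours with each compound at five concentrations. Insufficient inhibition: endpoint recorded as highest concentration tested. GI50 = concentration required for 50% inhibition of growth. TGI denotes the concentration required for complete inhibition of growth.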

With `O=C(Nc1cccc(Cl)c1)c1cc2cc(N=Nc3ccc(Br)cc3)ccc2oc1=O`, the TGI with DLD-1 colon was more than 100 µM; with DMS 114 small cell lung it was 56.6 µM; with DMS 273 small cell lung, 55.6 µM; in the assay with LXFL 529 NSCLC, 30.5 µM; in the assay with RXF-631 renal, more than 100 µM; in the assay on SNB-78 CNS, more than 100 µM. This compound also had a TGI with XF 498 CNS of more than 100 µM.
`O=C(Cc1nc2ccccc2s1)C(=O)Nc1ccccc1C(F)(F)F`: the TGI in the assay with DLD-1 colon, with DMS 114 small cell lung, in the assay with DMS 273 small cell lung, in the assay with LXFL 529 NSCLC, with M19-MEL melanoma and in the assay on SNB-78 CNS was more than 100 µM in each case. The TGI in the assay on XF 498 CNS is more than 100 µM.
Regarding `C[CH2][Ge]1([CH2]C)[CH2]CC2(CCN(CCCN(C)C)C2)C[CH2]1`, the GI50 with DMS 114 small cell lung was 2.11 µM; in the assay with DMS 273 small cell lung, 2.4 µM; with M19-MEL melanoma it was 1.47 µM; with MDA-N, 0.369 µM; in the assay with P388 leukemia it was 1.34 µM; with P388/ADR leukemia, 1.02 µM. In addition, the GI50 in the assay with SN12K1 renal was 1.97 µM; in the assay with XF 498 CNS, 1.16 µM. Further, the TGI worked out at 3.88 µM in the assay with DMS 114 small cell lung; 4.57 µM in the assay with DMS 273 small cell lung; 2.63 µM in the assay on M19-MEL melanoma; 1.02 µM in the assay with MDA-N; 2.7 µM in the assay with P388 leukemia; 1.87 µM in the assay with P388/ADR leukemia. The TGI in the assay on SN12K1 renal amounted to 4.38 µM; in the assay on XF 498 CNS, 1.45 µM.
In the case of `C/C(=C1/N=C(c2ccccc2)OC1=O)c1cccs1`, the TGI in the assay on MDA-N was more than 100 µM.
For `Cc1cn2cc(-c3ccncc3)nc2s1`, the TGI in the assay on DLD-1 colon, in the assay on DMS 114 small cell lung, with DMS 273 small cell lung, in the assay on LXFL 529 NSCLC, with M19-MEL melanoma and in the assay on RXF-631 renal was more than 100 µM in each case. Also, the TGI with SNB-78 CNS and with XF 498 CNS was more than 100 µM throughout.
As to `O=C1OC2C(O)COC2(OCc2c[nH]c3ccccc23)C1O` (stereo not given) (tested in a mixture with another compound), the TGI in the assay with DLD-1 colon, in the assay on DMS 114 small cell lung, in the assay on DMS 273 small cell lung, in the assay on LXFL 529 NSCLC, in the assay on M19-MEL melanoma and with SNB-78 CNS was more than 100 µM each time. Also, the TGI in the assay with XF 498 CNS was more than 100 µM.
For the compound `CC(=O)NC1C(=O)CC(c2ccccc2)N(C)C1c1ccccc1` (stereo not given), the TGI in the assay on DLD-1 colon, with DMS 114 small cell lung, with DMS 273 small cell lung, in the assay with LXFL 529 NSCLC, in the assay with M19-MEL melanoma and in the assay on RXF-631 renal was more than 100 µM in each case. The same compound returned a TGI in the assay with SNB-78 CNS of more than 100 µM.
As for `CC1CCCC2(O1)OC1CC(=O)OC1C1=C2C(=O)c2ccccc2C1=O` (stereo not given), the TGI was found to be 3.35 µM with DMS 114 small cell lung; 3.82 µM with DMS 273 small cell lung; 2.76 µM in the assay on LXFL 529 NSCLC; 7.36 µM in the assay with M19-MEL melanoma; 4.85 µM with SNB-78 CNS; 8.42 µM in the assay on XF 498 CNS.
As to `O=c1c2ccccc2nc(-c2ccccc2Cl)n1NC1OC(CO)C(O)C(O)C1O` (stereo not given), the TGI in the assay with DLD-1 colon, in the assay with DMS 114 small cell lung, with DMS 273 small cell lung, with LXFL 529 NSCLC, in the assay with M19-MEL melanoma and in the assay on SNB-78 CNS was more than 100 µM each time. The same compound returned a TGI in the assay on XF 498 CNS of more than 100 µM.
Turning to `COCC(O)CN1C(N)=NC(O)C1O` (stereo not given), the TGI in the assay with DLD-1 colon, in the assay on DMS 114 small cell lung, with LXFL 529 NSCLC, in the assay on M19-MEL melanoma and in the assay with SNB-78 CNS was more than 100 µM in each case.
`CC[N+]1(C)CCC(O)(/C=C/c2ccccc2)C(C(=O)/C=C/c2ccccc2)C1` (stereo not given): the TGI with DLD-1 colon amounted to 37.3 µM; in the assay on DMS 114 small cell lung, 16.9 µM; in the assay on DMS 273 small cell lung, 47.3 µM; with LXFL 529 NSCLC, 6.7 µM; with M19-MEL melanoma, 27.3 µM; in the assay with MDA-N it was 23.7 µM. Further, the TGI in the assay with SNB-78 CNS was more than 78.7 µM; with XF 498 CNS, 26.7 µM.
`CCOc1ccccc1Nc1nc(C)c(C(=O)CC(=O)C(=O)Nc2ccccc2)s1`: the TGI in the assay on DLD-1 colon, with DMS 114 small cell lung, with DMS 273 small cell lung, in the assay with LXFL 529 NSCLC, with M19-MEL melanoma and in the assay on SNB-78 CNS was more than 100 µM throughout. Moreover, the TGI in the assay on XF 498 CNS is more than 100 µM.
For `CCCC1C2=C(C(=O)OC2=O)C2C(CC)CC3=C(C(=O)OC3=O)C12` (stereo not given), the TGI in the assay with MDA-N is more than 100 µM.
Turning to `COc1cc(C2C(C(=O)Nc3ccc(Cl)c(Cl)c3)=C(C)NC(C)=C2C(=O)Nc2ccc(Cl)c(Cl)c2)ccc1O`, the TGI with DLD-1 colon was found to be 22.4 µM; in the assay with DMS 114 small cell lung, 24.2 µM; in the assay with LXFL 529 NSCLC, 21.2 µM; in the assay on M19-MEL melanoma it was 32 µM; with SNB-78 CNS, 53.5 µM; in the assay on XF 498 CNS, 33.1 µM.
In the assay with MDA-N, `O=C1C2=C(Nc3cc([N+](=O)[O-])ccc3N2)OC1c1c[nH]c2ccc(COc3ccccc3)cc12` (stereo not given) registered a TGI of more than 100 µM.
For the compound `O=C1[C@@H]2C3C=CC([C@H]4C(=O)N(CO)C(=O)[C@@H]34)[C@@H]2C(=O)N1CO`, the TGI is more than 74.1 µM in the assay on DLD-1 colon; more than 62.2 µM with DMS 114 small cell lung; more than 57.3 µM in the assay with DMS 273 small cell lung; more than 100 µM in the assay with LXFL 529 NSCLC; more than 58.8 µM with M19-MEL melanoma; more than 100 µM with SNB-78 CNS. In the assay on XF 498 CNS, this compound yielded a TGI of more than 100 µM.
For `S=C(N/N=C/c1ccccc1)NC1CC(c2ccccc2)Oc2ccccc21` (stereo not given), the TGI in the assay on DLD-1 colon was more than 100 µM; with DMS 114 small cell lung it was more than 100 µM; in the assay on DMS 273 small cell lung, more than 100 µM; in the assay with LXFL 529 NSCLC, more than 100 µM; with M19-MEL melanoma, more than 100 µM; with SNB-78 CNS it was 96.1 µM. The compound further displayed a TGI with XF 498 CNS of more than 100 µM.
In the case of `O=[N+]([O-])c1ccc(-c2ccc(C3=Nn4c(nnc4-c4ccc(Cl)cc4)SC3)o2)cc1`, the TGI in the assay on DLD-1 colon, with DMS 114 small cell lung, in the assay on DMS 273 small cell lung, in the assay on LXFL 529 NSCLC, in the assay with M19-MEL melanoma and in the assay on RXF-631 renal was more than 100 µM throughout. In addition, the TGI in the assay on XF 498 CNS stood at 60.1 µM.

The values above are taken from PubChem BioAssay (NCI).
